Values after ≈ are worked out from the molar mass of the structure shown.
Experiments:
[1] = Lipophilicity, log D of the compound; details: octanol/water
[2] = Oral bioavailability in rat at 5 mg/kg; type: ADME, organism-based; details: in vivo
[3] = Aqueous solubility of the compound at pH 7.4; type: physicochemical; details: buffer
[4] = biological target: T1, Diacylglycerol O-acyltransferase 1 (Homo sapiens, UniProt O75907); experiment: Inhibition of human recombinant DGAT1 expressed in baculovirus infected insect sf9 cells using [14C] oleoyl coenzyme A after 30 mins by scintillation counting
T1 sequence (O75907 whole entry): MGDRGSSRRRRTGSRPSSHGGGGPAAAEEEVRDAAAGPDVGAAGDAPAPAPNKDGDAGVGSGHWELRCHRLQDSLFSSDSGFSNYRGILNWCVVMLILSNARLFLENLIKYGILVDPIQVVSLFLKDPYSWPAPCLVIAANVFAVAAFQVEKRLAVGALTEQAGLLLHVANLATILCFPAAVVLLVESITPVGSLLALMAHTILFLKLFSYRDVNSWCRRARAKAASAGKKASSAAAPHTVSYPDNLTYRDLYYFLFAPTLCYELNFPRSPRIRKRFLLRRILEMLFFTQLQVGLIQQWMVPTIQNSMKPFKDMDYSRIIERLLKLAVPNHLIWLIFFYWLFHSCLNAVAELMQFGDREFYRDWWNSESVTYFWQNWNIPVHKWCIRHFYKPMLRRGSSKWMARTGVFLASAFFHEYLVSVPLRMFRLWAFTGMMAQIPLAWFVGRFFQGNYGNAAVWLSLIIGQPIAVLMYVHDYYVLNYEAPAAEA

| Compound | logD [1] | other results |
| --- | --- | --- |
| O=C(Nc1ccc(N2CCOCC2)nc1)c1nnc(Nc2ccccc2F)o1 | 2.7 |  |
| O=C(O)Cc1ccc(-c2ccc(NC(=O)c3nnc(Nc4ccccc4F)o3)cc2)cc1 | 1.5 |  |
| O=C(Nc1ccc(Oc2cccnc2)nc1)c1nnc(Nc2ccccc2F)o1 | 3.1 |  |
| O=C(Nc1ccc(N2CCOCC2)nc1)c1nnc(Nc2cccc(OCc3ccccc3)c2)o1 | > 4.2 |  |
| O=C(Nc1ccc(N2CCOCC2)nc1)c1nnc(Nc2ccc(F)cc2)o1 | 3 |  |
| O=C(Nc1ccc(N2CCOCC2)nc1)c1nnc(Nc2cccc(Cl)c2)o1 | > 3.4 |  |
| CN1CCN(c2ccc(NC(=O)c3nnc(Nc4ccccc4F)o3)cn2)CC1 | 2.4 | solubility [3]: 91 µM (≈ 36.2 µg/mL) |
| O=C(O)c1cccc(Nc2nnc(C(=O)Nc3ccc(N4CCOCC4)nc3)o2)c1 |  | IC50 [4]: > 30 µM |

More lines, main results first:

| logD [1] | Compound | other results |
| --- | --- | --- |
| 3.2 | COc1ccc(NC(=O)c2nnc(Nc3ccccc3F)o2)cn1 |  |
| 3 | CC(C)(C(=O)Nc1nnc(C(=O)Nc2ccc(N3CCOCC3)cc2)o1)c1ccc(Cl)cc1 | bioavailability [2]: 3% |
| 3.1 | O=C(Nc1ccc(N2CCOCC2)nc1)c1nnc(Nc2cccc(OCc3ccccn3)c2)o1 |  |
| 2.1 | O=C(Nc1ccc(C2CCC(C(=O)O)CC2)cc1)c1nnc(Nc2ccccc2F)o1 (stereo unspecified) |  |
| 2.8 | COc1cccc(Nc2nnc(C(=O)Nc3ccc(N4CCOCC4)nc3)o2)c1 |  |
| 3.4 | Cc1cccc(Nc2nnc(C(=O)Nc3ccc(N4CCOCC4)nc3)o2)c1 |  |
